Assay results reported in ChEMBL document CHEMBL1201862, “PubChem BioAssay data set” (2004).
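Tested at 5 concentrations; 48 h exposure; 96-well plates; endpoints linearly interpolated, else capped at highest concentration. GI50 marks 50% less growth.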 Activity calls are given as the source filed them. No stated cut-off is given here; in the data, active = GI50 up to about 1.1 µM and inactive = higher.

Columns and labels:
Experiment in all cases: NCI tumour cell line growth inhibition, 48 h
[1] = system: A549
[2] = system: BT-549
[3] = system: CAKI-1
[4] = system: CCRF-CEM
[5] = system: COLO 205
[6] = system: IGROV-1
[7] = system: K562
[8] = system: KM12
[9] = system: M14
[10] = system: MDA-N
[11] = system: NCI-H226
[12] = system: NCI-H460
[13] = system: OVCAR-3
[14] = system: RXF 393
[15] = system: SK-MEL-2
[16] = system: SK-MEL-5
[17] = system: SK-OV-3
[18] = system: SNB-75
[19] = system: TK-10
[20] = system: UACC-257

SMILES | GI50 [1] | GI50 [2] | GI50 [3] | GI50 [4] | GI50 [5] | GI50 [6] | GI50 [7] | GI50 [8] | GI50 [9] | GI50 [10] | GI50 [11] | GI50 [12] | GI50 [13] | GI50 [14] | GI50 [15] | GI50 [16] | GI50 [17] | GI50 [18] | GI50 [19] | GI50 [20]
NC1=Nc2ccccc2Sc2nccn21 | 41.7 µM (inactive) | 54.3 µM (inactive) | 27.4 µM (inactive) | 27 µM (inactive) | 15.4 µM (inactive) | 23.9 µM (inactive) | 19.6 µM (inactive) | 24.2 µM (inactive) | 17 µM (inactive) | 23 µM (inactive) | 20.9 µM (inactive) | 31 µM (inactive) | 18.6 µM (inactive) | 25.8 µM (inactive) | 32.7 µM (inactive) | 16.5 µM (inactive) | > 100 µM (inactive) | 17.9 µM (inactive) | 30.6 µM (inactive) | 31.8 µM (inactive)
COC(=O)c1cc(C)n(CN(Cc2ccccc2)Cn2nc(C(=O)OC)cc2C)n1 | > 100 µM (inactive) | > 100 µM (inactive) | > 69.2 µM (inactive) | 17.1 µM (inactive) | > 46.9 µM (inactive) | > 66.1 µM (inactive) | > 100 µM (inactive) | > 100 µM (inactive) | > 100 µM (inactive) | > 92.5 µM (inactive) | > 100 µM (inactive) | > 100 µM (inactive) | > 100 µM (inactive) | > 53.7 µM (inactive) | > 100 µM (inactive) | 99.1 µM (inactive) | > 100 µM (inactive) | > 27.2 µM (inactive) | > 100 µM (inactive) | > 100 µM (inactive)
C[n+]1cn(C2=C([N-]S(=O)(=O)c3ccccc3)C(=O)c3ccccc3C2=O)c2ccccc21 | 85.9 µM (inactive) | 20.9 µM (inactive) | > 100 µM (inactive) | 39.6 µM (inactive) | 2.85 µM (inactive) | 17.3 µM (inactive) | 29.9 µM (inactive) | 15.9 µM (inactive) | 16.5 µM (inactive) | 12.8 µM (inactive) | 56.4 µM (inactive) | 16.8 µM (inactive) | 3.06 µM (inactive) | 20.3 µM (inactive) | 11.5 µM (inactive) | 6.08 µM (inactive) | > 100 µM (inactive) | 24.3 µM (inactive) | 20.8 µM (inactive) | 19.4 µM (inactive)
COc1ccc2nc3n(c2c1)C(c1c(F)cccc1F)SC3 (stereo not given) | 49 µM (inactive) | > 100 µM (inactive) | 94 µM (inactive) | 54.1 µM (inactive) | > 100 µM (inactive) | 40.1 µM (inactive) | 50.4 µM (inactive) | 40.2 µM (inactive) | > 100 µM (inactive) | 61.4 µM (inactive) | 19.9 µM (inactive) | 35 µM (inactive) | 28.6 µM (inactive) | > 100 µM (inactive) | 11.1 µM (inactive) | 33.2 µM (inactive) | > 100 µM (inactive) | 74.6 µM (inactive) | 77.4 µM (inactive) | > 100 µM (inactive)
COc1cc(Br)cc2nc(-c3cccs3)oc12 | > 100 µM (inactive) | > 67.8 µM (inactive) | > 86.5 µM (inactive) | > 100 µM (inactive) | > 100 µM (inactive) | > 43.2 µM (inactive) | > 100 µM (inactive) | > 100 µM (inactive) | > 100 µM (inactive) | > 100 µM (inactive) | > 100 µM (inactive) | > 100 µM (inactive) | > 100 µM (inactive) | 45.6 µM (inactive) | > 100 µM (inactive) | 74.1 µM (inactive) | > 90.6 µM (inactive) | > 51.3 µM (inactive) | 31.8 µM (inactive) | > 100 µM (inactive)
CCC(CCCC[C@H]1CC[C@@H]2CC(=O)C[C@H]12)OC (stereo not given in full) | > 100 µM (inactive) | 50.7 µM (inactive) | > 100 µM (inactive) | > 100 µM (inactive) | > 100 µM (inactive) | > 100 µM (inactive) | 25.6 µM (inactive) | > 100 µM (inactive) | > 100 µM (inactive) | > 100 µM (inactive) | > 100 µM (inactive) | > 100 µM (inactive) | > 100 µM (inactive) | > 100 µM (inactive) | > 100 µM (inactive) | 31.8 µM (inactive) | > 100 µM (inactive) | 59 µM (inactive) | > 100 µM (inactive) | 46.5 µM (inactive)
COc1cc2c(cc1OCCCNC(=O)c1cc3ccccc3[nH]1)N=C[C@@H]1CCCN1C2=O | 0.632 µM (active) | 0.0736 µM (active) | 0.296 µM (active) | 0.193 µM (active) | 0.391 µM (active) | 0.277 µM (active) | 0.243 µM (active) | 0.241 µM (active) | 0.305 µM (active) | 0.254 µM (active) | 0.313 µM (active) | 0.675 µM (active) | 0.306 µM (active) | 0.0966 µM (active) | 0.179 µM (active) | 0.195 µM (active) | 1.6 µM (inactive) | 0.263 µM (active) | 0.359 µM (active) | 0.448 µM (active)
